Assay [1] addresses 5-hydroxytryptamine receptor 1B (Homo sapiens, UniProt P28222). The assay is described as follows: Inhibition of 5-HT1B receptor.
Assay [2] concerns the target 5-hydroxytryptamine receptor 1E (Homo sapiens) (UniProt P28566). The experiment in a line: Inhibition of 5HT1E receptor at 10 uM.
The target in assay [3] is D(1B) dopamine receptor (Homo sapiens) (UniProt P21918). The assay is described as follows: Inhibition of D5 dopamine receptor at 10 uM.
Assay [4] concerns the target Histamine H4 receptor (Homo sapiens) (UniProt Q9H3N8). The assay is described as follows: Inhibition of H4 receptor at 10 uM.
Assay [5] concerns the target T1, Muscarinic acetylcholine receptor M4 (Homo sapiens) (UniProt P08173).
T1 sequence (whole entry): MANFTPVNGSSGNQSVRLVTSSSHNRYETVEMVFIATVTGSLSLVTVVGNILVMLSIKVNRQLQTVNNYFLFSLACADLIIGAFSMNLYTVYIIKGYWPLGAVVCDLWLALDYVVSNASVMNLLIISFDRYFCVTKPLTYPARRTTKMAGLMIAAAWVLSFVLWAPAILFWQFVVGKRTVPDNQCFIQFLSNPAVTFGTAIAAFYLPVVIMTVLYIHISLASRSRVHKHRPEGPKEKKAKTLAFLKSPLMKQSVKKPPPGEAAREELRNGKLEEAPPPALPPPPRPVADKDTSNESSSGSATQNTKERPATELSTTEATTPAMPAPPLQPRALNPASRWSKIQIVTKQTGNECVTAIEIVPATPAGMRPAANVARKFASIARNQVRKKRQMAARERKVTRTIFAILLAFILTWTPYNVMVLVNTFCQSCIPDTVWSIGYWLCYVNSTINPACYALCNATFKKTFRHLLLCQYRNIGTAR
The experiment in a line: Inhibition of M4 muscarinic receptor at 10 uM.

In assay [6] the target is T2, Muscarinic acetylcholine receptor M2 (Homo sapiens) (UniProt P08172).
T2 sequence (whole entry): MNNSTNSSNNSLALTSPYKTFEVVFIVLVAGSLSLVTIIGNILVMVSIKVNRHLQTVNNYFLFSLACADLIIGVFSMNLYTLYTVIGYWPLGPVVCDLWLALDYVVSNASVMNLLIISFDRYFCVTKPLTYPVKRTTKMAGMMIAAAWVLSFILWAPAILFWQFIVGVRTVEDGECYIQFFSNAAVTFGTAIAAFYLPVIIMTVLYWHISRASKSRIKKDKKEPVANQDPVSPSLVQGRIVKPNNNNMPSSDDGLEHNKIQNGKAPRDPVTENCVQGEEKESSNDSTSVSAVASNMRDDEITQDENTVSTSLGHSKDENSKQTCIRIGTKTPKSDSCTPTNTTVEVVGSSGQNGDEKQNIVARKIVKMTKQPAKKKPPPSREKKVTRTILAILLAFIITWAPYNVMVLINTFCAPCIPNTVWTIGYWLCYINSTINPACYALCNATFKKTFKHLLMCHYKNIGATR
The experiment in a line: Inhibition of M2 muscarinic receptor at 10 uM.

Assay [7] deals with T3, Muscarinic acetylcholine receptor M5 (Homo sapiens) (UniProt P08912).
T3 sequence (whole entry): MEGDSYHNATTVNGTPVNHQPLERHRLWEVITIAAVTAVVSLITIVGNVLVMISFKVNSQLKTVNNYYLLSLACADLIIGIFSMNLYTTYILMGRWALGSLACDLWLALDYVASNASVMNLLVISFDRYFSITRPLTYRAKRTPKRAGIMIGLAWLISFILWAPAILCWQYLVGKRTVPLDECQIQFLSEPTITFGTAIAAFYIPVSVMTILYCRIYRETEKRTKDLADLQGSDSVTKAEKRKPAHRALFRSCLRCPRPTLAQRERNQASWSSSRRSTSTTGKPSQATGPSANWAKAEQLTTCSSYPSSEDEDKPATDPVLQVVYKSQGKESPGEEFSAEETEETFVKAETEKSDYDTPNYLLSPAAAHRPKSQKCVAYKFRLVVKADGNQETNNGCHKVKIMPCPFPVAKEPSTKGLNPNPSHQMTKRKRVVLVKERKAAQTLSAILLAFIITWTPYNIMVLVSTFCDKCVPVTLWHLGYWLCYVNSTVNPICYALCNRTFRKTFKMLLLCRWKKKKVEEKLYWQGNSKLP
The experiment in a line: Inhibition of M5 muscarinic receptor at 10 uM.

The target of assay [8] is D(2) dopamine receptor (Homo sapiens) (UniProt P14416). The assay is described as follows: Inhibition of D2 dopamine receptor at 10 uM.
D(2) dopamine receptor (Homo sapiens), sequence (P14416 whole entry): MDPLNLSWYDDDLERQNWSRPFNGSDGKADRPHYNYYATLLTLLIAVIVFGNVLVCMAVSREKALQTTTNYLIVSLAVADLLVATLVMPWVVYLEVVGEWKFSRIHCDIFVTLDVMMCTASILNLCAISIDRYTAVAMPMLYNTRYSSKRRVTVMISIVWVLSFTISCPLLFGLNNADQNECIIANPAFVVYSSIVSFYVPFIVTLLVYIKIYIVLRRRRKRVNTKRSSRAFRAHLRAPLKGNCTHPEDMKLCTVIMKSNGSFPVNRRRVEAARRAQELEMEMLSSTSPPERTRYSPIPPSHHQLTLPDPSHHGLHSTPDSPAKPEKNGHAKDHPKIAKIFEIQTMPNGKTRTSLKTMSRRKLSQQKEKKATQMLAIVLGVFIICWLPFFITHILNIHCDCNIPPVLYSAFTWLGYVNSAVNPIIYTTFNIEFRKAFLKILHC
A short description of assay [9]: Displacement of [3H]Ro151788 from CBR in rat […]. It counts as tissue-based. Background: In a radioligand displacement assay an active substance lowers the binding of a labelled ligand.
Assay [10] deals with Beta-1 adrenergic receptor (Homo sapiens) (UniProt P08588). The experiment in a line: Inhibition of beta-1 adrenergic receptor at 10 uM.
Beta-1 adrenergic receptor (Homo sapiens), sequence (P08588 whole entry, looked up): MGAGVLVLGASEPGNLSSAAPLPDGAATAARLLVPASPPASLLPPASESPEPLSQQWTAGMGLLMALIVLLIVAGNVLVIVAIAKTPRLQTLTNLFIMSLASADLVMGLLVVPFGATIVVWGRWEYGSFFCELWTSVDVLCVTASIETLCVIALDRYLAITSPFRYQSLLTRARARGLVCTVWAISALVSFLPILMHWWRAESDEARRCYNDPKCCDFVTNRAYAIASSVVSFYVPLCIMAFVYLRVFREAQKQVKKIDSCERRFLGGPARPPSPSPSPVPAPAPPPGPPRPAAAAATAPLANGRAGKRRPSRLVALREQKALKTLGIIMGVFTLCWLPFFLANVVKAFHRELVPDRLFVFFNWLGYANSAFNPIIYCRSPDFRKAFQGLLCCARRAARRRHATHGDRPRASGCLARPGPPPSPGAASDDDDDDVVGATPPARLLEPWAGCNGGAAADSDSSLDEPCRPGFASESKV
The target in assay [11] is D(1A) dopamine receptor (Homo sapiens) (UniProt P21728). The experiment in a line: Inhibition of D1 dopamine receptor at 10 uM.
D(1A) dopamine receptor (Homo sapiens), sequence (P21728 whole entry): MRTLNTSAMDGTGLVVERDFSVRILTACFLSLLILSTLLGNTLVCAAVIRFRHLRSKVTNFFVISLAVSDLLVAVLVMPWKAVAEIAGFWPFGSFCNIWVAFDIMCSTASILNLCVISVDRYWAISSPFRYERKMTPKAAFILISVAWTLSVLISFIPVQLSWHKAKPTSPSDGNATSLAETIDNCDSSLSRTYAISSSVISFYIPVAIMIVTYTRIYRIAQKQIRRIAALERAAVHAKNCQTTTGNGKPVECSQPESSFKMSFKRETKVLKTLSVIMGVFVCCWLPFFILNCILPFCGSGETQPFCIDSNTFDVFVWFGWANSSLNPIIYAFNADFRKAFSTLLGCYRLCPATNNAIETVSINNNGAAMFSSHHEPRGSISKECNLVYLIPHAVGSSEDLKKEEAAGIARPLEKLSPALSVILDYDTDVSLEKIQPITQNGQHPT
For assay [12], the target named is T4, Alpha-1B adrenergic receptor (Homo sapiens) (UniProt P35368).
T4 sequence (whole entry): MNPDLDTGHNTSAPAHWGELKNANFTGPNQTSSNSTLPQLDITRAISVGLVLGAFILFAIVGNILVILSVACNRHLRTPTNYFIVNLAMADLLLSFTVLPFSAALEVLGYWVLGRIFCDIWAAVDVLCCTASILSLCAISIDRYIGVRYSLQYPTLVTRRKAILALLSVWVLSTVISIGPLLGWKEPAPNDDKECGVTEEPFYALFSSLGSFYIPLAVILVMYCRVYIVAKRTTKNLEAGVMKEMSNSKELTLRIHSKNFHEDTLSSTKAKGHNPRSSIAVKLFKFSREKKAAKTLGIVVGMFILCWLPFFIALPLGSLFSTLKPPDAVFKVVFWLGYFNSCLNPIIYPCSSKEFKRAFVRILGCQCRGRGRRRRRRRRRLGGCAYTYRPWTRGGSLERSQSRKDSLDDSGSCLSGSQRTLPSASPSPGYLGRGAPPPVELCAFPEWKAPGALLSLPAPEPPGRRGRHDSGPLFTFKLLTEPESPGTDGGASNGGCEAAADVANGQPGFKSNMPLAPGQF
The assay is described as follows: Inhibition of Alpha-1B adrenergic receptor at 10 uM.

In assay [13] the target is Histamine H1 receptor (Homo sapiens) (UniProt P35367). The experiment in a line: Inhibition of H1 receptor at 10 uM.
Histamine H1 receptor (Homo sapiens), sequence (P35367 whole entry): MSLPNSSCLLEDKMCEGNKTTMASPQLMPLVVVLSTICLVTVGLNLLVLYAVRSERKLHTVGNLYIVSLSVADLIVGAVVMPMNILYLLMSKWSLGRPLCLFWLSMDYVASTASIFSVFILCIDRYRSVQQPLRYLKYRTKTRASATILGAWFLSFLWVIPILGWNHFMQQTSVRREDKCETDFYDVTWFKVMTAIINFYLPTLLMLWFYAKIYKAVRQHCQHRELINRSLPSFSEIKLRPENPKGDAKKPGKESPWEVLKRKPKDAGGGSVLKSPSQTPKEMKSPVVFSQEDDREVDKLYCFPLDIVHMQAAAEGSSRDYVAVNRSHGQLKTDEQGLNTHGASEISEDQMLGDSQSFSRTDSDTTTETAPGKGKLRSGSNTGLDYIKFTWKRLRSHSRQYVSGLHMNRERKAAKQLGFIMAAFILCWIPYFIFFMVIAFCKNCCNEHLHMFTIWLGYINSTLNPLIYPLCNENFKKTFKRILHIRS
Assay [14] concerns the target Beta-3 adrenergic receptor (Homo sapiens) (UniProt P13945). The experiment in a line: Inhibition of beta3 adrenergic receptor at 10 uM.
In assay [15] the target is 5-hydroxytryptamine receptor 2B (Homo sapiens, UniProt P41595). The assay is described as follows: Inhibition of 5-HT2B receptor at 10 uM.
5-hydroxytryptamine receptor 2B, sequence (P41595 whole entry): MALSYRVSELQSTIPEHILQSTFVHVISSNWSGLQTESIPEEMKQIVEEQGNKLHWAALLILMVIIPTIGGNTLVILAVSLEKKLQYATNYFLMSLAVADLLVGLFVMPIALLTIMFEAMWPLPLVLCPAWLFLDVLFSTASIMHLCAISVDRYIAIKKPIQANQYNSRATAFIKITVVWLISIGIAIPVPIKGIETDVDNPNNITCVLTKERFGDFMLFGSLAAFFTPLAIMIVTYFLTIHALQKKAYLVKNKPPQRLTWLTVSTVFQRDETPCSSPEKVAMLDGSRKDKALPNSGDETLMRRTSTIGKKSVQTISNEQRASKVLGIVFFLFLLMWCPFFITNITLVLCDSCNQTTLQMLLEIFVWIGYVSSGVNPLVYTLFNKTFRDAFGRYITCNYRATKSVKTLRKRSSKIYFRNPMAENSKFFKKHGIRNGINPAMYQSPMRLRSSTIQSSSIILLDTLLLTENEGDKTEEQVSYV

SMILES strings stand for the structures.

In general, Ki refers to the equilibrium dissociation constant of an inhibitor or competing ligand from its target. High values mean lower affinity, low ones higher affinity. What is called inhibition is the percentage by which the read-out fell short of the control. Read a high inhibition as strong suppression.

5-hydroxytryptamine receptor 1E (Homo sapiens), sequence (P28566 whole entry): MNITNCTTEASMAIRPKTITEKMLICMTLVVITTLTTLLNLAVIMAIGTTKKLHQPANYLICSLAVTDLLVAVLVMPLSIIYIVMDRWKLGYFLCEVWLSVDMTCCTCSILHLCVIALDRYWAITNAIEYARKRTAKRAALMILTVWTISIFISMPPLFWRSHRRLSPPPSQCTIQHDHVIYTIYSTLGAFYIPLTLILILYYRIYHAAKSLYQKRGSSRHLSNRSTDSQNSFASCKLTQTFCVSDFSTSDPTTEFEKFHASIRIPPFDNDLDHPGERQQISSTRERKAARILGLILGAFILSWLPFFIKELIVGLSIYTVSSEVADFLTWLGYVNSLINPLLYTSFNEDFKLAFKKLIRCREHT
Histamine H4 receptor (Homo sapiens), sequence (Q9H3N8 whole entry): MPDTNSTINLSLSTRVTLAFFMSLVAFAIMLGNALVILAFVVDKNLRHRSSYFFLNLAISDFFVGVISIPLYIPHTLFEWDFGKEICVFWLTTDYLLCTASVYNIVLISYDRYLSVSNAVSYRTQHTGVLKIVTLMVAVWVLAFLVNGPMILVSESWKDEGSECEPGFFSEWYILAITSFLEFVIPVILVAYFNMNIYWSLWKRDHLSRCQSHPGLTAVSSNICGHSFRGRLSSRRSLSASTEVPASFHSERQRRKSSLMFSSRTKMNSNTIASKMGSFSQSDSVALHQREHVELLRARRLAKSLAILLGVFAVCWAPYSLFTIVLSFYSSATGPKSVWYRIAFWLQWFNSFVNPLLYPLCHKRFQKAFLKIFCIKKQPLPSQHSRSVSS
D(1B) dopamine receptor (Homo sapiens), sequence (P21918 whole entry): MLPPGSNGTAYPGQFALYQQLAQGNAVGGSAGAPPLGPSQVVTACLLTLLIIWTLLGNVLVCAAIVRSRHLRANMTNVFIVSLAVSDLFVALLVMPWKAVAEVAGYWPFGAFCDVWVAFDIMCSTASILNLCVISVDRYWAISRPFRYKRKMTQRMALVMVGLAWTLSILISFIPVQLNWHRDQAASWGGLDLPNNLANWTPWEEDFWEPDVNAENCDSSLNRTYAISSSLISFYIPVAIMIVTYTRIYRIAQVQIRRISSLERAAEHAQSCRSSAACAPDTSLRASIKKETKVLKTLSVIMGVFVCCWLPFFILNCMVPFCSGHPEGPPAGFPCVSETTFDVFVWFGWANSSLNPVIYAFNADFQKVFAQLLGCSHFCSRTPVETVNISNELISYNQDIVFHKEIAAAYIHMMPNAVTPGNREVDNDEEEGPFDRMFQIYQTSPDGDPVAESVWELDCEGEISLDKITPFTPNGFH
Beta-3 adrenergic receptor (Homo sapiens), sequence (P13945 whole entry, looked up): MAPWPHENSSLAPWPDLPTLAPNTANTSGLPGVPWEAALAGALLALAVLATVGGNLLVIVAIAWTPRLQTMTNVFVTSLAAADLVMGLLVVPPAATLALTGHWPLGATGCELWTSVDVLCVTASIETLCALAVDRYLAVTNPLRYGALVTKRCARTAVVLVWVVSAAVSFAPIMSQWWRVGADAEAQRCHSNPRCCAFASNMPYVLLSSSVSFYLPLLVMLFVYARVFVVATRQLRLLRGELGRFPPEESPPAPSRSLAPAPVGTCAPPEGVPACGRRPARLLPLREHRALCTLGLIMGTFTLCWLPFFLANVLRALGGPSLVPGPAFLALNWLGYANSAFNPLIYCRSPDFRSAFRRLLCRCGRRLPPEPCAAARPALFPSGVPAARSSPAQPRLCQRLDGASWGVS
5-hydroxytryptamine receptor 1B, sequence (P28222 whole entry): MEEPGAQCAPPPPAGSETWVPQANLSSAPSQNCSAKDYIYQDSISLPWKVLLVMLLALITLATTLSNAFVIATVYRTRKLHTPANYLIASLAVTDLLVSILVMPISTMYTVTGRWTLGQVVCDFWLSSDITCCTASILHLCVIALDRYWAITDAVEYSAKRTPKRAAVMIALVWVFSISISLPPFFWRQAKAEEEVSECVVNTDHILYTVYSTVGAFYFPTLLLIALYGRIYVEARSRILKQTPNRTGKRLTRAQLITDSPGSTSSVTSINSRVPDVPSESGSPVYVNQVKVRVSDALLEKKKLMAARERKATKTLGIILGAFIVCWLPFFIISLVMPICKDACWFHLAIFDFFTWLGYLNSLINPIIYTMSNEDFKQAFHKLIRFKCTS

For `CCCCOc1ccc(-c2nn3c(C)cc(C)nc3c2CC(=O)N(CC)CC)cc1`, the Ki was 1.57 µM in assay [1] and more than 10 µM in [9]. Also, the inhibition in assay [2], in assay [3], in assay [4], in assay [5], in [6] and in assay [7] was less than 50% throughout. The inhibition in assay [8], in assay [10], in [11], in [12], in [13] and in [14] was less than 50% throughout.

Consider `C#CCOc1ccc(-c2nn3c(C)cc(C)nc3c2CC(=O)N(CC)CC)cc1`, for which the inhibition in assay [15], in assay [2], in assay [3], in assay [4], in [5] and in assay [6] was less than 50% in each case. In addition, the inhibition in [7], in assay [8], in assay [10], in [11], in [12] and in assay [13] was less than 50% throughout. In assay [14], this compound yielded an inhibition of less than 50%. For the same compound, the Ki in assay [1] and in assay [9] was more than 10 µM each time.

`CCOc1ccc(-c2nn3c(C)cc(C)nc3c2CC(=O)N(CC)CC)cc1`: the inhibition in assay [15], in [2], in [3], in [4], in assay [5] and in [6] was less than 50% each time. For the same compound, the inhibition in [7], in assay [8], in assay [10], in assay [11], in assay [12] and in [13] was less than 50% throughout. The compound also yielded an inhibition in [14] of less than 50%. The Ki in assay [1] and in assay [9] was more than 10 µM throughout.

For the compound `CCCOc1ccc(-c2nn3c(C)cc(C)nc3c2CC(=O)N(CC)CC)cc1`, the inhibition in [15], in [2], in assay [3], in assay [4], in assay [5] and in [6] was less than 50% in each case. In addition, the inhibition in assay [7], in assay [8], in assay [10], in assay [11], in assay [13] and in assay [14] was less than 50% each time. Besides, the Ki in assay [1] and in assay [9] was more than 10 µM in each case.

Values taken from ChEMBL document CHEMBL1255512, “Pyrazolo[1,5-a]pyrimidine acetamides: 4-Phenyl alkyl ether derivatives as potent ligands for the 18 kDa translocator protein (TSPO)” (Bioorg Med Chem Lett, 2010).
